This is an account of results in PMC6152416, “Pharmacological and Toxicological Screening of Novel Benzimidazole-Morpholine Derivatives as Dual-Acting Inhibitors” (Molecules : A Journal of Synthetic Chemistry and Natural …, 2017).

Structures are written as SMILES. Values after ≈ are worked out from the molar mass of the structure shown.

The first assay addresses T1, COX-2 (Homo sapiens, UniProt P35354).
T1 construct: purchased BioVision (Milpitas, CA, USA) K547-100
T1 sequence (P35354 18-604): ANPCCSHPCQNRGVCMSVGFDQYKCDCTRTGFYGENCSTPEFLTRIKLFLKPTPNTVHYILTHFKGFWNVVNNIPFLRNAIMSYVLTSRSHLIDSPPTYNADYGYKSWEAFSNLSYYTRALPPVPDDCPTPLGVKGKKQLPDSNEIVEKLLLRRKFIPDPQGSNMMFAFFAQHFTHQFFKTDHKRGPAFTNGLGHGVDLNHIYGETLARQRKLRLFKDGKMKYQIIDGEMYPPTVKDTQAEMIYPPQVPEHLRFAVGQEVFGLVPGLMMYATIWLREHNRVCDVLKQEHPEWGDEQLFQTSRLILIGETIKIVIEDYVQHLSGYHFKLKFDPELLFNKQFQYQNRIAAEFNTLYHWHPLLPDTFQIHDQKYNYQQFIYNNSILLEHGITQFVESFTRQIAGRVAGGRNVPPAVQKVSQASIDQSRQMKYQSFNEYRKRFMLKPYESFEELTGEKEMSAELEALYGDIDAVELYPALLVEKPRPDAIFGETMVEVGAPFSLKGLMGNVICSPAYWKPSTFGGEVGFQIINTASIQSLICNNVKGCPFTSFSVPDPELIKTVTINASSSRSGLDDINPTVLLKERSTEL
As to the kind of experiment: Fluorimetric COX-2 inhibition screening kit (BioVision). In kind it is biochemical. The note with it: 10^-3 M. The protocol: (§1) Inhibitory potency of the compounds on COX-1 and COX-2 enzymes was determined by using fluorimetric COX-1 and COX-2 inhibition screening kits from BioVision (Milpitas, CA, USA). The experimental protocol as described in the guides provided by the supplier was followed. All of the pipetting were performed using a robotized system to increase speed, accuracy and precision. Fluorescence intensities of the samples were kinetically measured at 25 °C for 5–10 min by monitoring emissions at 587 nm after excitation at 535 nm. Two appropriate points (T1 and T2) in the linear range of the plot were chosen and the corresponding fluorescence values (RFU1 and RFU2) were obtained. The slope for all samples including Enzyme Control (EC) was calculated by dividing the net ΔRFU (RFU2 − RFU1) values by the time ΔT (T2 − T1). Percentage of relative inhibition was calculated by using the following equation:% Relative inhibition = (Slope of EC − Slope of S/Slope of EC) × 100 where S is the term representing the tested compound [51, 52]. […] The IC50 values were calculated using the plots of the enzyme activity against concentrations by applying regression analyses.
Regarding `CSc1ccc(-c2nc3ccccc3n2CCN2CCOCC2)cc1` [Compound 2n, 2-(4-Methylthiophenyl)-1-[2-(morpholin-4-yl)ethyl]-1H-benzimidazole], the “COX-2 Inhibition (%)” value came out at 30.08%.
The same measure, in the same setting: the result for `c1ccc(-c2ccc(-c3nc4ccccc4n3CCN3CCOCC3)cc2)cc1` [Compound 2o, 2-(1,1’-Biphenyl)-1-[2-(morpholin-4-yl)ethyl]-1H-benzimidazole] reads 30.76%.

Staying with this assay, now noted: 10^-4 M.
In the case of `CSc1ccc(-c2nc3ccccc3n2CCN2CCOCC2)cc1` [Compound 2n, 2-(4-Methylthiophenyl)-1-[2-(morpholin-4-yl)ethyl]-1H-benzimidazole], the “COX-2 Inhibition (%)” value turned out to be 33.46%.
For the compound `c1ccc(-c2ccc(-c3nc4ccccc4n3CCN3CCOCC3)cc2)cc1` [Compound 2o, 2-(1,1’-Biphenyl)-1-[2-(morpholin-4-yl)ethyl]-1H-benzimidazole], the “COX-2 Inhibition (%)” value came out at 21.48%.

For another assay, the target named is T2, COX-1 (Ovis aries, UniProt P05979).
T2 construct: purchased BioVision (Milpitas, CA, USA) K548-100
T2 sequence (P05979 25-600): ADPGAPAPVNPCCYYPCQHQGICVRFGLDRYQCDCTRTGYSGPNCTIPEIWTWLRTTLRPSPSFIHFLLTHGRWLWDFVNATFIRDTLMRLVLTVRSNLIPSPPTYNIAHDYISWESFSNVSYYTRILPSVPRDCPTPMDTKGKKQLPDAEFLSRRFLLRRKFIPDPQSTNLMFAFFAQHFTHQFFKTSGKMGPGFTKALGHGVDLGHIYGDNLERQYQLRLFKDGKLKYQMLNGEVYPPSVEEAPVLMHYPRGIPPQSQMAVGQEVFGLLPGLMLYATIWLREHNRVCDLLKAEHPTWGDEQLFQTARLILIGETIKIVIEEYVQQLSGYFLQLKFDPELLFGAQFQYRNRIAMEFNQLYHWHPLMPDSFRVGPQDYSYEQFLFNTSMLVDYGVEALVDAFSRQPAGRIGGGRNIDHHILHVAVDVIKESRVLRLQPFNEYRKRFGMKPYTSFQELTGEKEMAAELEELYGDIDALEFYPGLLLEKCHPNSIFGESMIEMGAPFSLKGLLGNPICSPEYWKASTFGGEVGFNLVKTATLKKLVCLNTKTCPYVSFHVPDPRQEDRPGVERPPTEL
The assay can be described thus: Fluorimetric COX-1 inhibition screening kit (BioVision). It is filed as biochemical. As to conditions: 10^-3 M. The protocol: as §1
As to `CSc1ccc(-c2nc3ccccc3n2CCN2CCOCC2)cc1` [Compound 2n, 2-(4-Methylthiophenyl)-1-[2-(morpholin-4-yl)ethyl]-1H-benzimidazole], the “COX-1 Inhibition (%)” value turned out to be 39.42%.
On the same count and under the same terms, for `c1ccc(-c2ccc(-c3nc4ccccc4n3CCN3CCOCC3)cc2)cc1` [Compound 2o, 2-(1,1’-Biphenyl)-1-[2-(morpholin-4-yl)ethyl]-1H-benzimidazole] the value was 27.63%.

The assay is the same for the next values; noted with them: 10^-4 M.
As to `CSc1ccc(-c2nc3ccccc3n2CCN2CCOCC2)cc1` [Compound 2n, 2-(4-Methylthiophenyl)-1-[2-(morpholin-4-yl)ethyl]-1H-benzimidazole], the “COX-1 Inhibition (%)” value was 32.78%.
On the same count and under the same terms, for `c1ccc(-c2ccc(-c3nc4ccccc4n3CCN3CCOCC3)cc2)cc1` [Compound 2o, 2-(1,1’-Biphenyl)-1-[2-(morpholin-4-yl)ethyl]-1H-benzimidazole] the value was 34.00%.

In a further assay the target is T3, human recombinant MAO-B (Homo sapiens, UniProt P27338).
T3 sequence (P27338 1-520): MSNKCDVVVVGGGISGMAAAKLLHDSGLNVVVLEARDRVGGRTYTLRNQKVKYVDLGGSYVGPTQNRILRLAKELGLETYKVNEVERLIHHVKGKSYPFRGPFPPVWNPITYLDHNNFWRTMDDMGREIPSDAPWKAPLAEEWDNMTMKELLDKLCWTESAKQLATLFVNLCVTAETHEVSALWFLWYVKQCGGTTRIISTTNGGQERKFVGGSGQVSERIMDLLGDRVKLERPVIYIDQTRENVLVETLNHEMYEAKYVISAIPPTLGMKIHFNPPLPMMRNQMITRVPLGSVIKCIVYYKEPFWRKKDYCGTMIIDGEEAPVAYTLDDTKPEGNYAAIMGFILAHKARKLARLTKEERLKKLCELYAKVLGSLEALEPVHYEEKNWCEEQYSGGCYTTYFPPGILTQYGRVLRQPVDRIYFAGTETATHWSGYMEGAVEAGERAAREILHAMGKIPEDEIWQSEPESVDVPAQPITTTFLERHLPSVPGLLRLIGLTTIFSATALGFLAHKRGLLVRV
As to the kind of experiment: MAO inhibition assay (kynuramine, fluorimetric). It is filed as biochemical. The note with it: 10^-3 M. As for the experimental part: (§2) Enzyme activity assays were performed according to the procedure reported by Matsumoto et al. with slight modifications. In order to prevent the destructive effect of light on MAO enzymes, the assays were performed in 96-well black plates. Phosphate buffer solution (0.1 M, pH = 7.4) was used for preparation of stock solutions (5 mg/mL) of both human recombinant MAO-A and MAO-B enzymes. […] The addition of the test compound solution was followed by addition of either MAO-A or MAO-B enzyme (50 μL/well) solutions. After 10 min of incubation at 37 °C, kynuramine (50 μL/well) was added and enzyme-substrate reaction was initiated. The plate was incubated for 20 min at 37 °C and then reaction was terminated by addition of 2 N NaOH (75 μL/well). The fluorimetric reads from the top was performed at 310 nm excitation and 380 nm emission wavelengths.
As for `CSc1ccc(-c2nc3ccccc3n2CCN2CCOCC2)cc1` [Compound 2n, 2-(4-Methylthiophenyl)-1-[2-(morpholin-4-yl)ethyl]-1H-benzimidazole], the “MAO-B Inhibition (%)” value is listed as 34.75%.
On the same count and under the same terms, the result for `c1ccc(-c2ccc(-c3nc4ccccc4n3CCN3CCOCC3)cc2)cc1` [Compound 2o, 2-(1,1’-Biphenyl)-1-[2-(morpholin-4-yl)ethyl]-1H-benzimidazole] reads 31.12%.

Still in this assay, the particulars now being: 10^-4 M.
On to `CSc1ccc(-c2nc3ccccc3n2CCN2CCOCC2)cc1` [Compound 2n, 2-(4-Methylthiophenyl)-1-[2-(morpholin-4-yl)ethyl]-1H-benzimidazole], for which the “MAO-B Inhibition (%)” value is recorded as 32.24%.
The same measure, in the same setting: for `c1ccc(-c2ccc(-c3nc4ccccc4n3CCN3CCOCC3)cc2)cc1` [Compound 2o, 2-(1,1’-Biphenyl)-1-[2-(morpholin-4-yl)ethyl]-1H-benzimidazole] the value was 23.54%.

The target of the next assay is T4, human recombinant MAO-A (Homo sapiens, UniProt P21397).
T4 sequence (P21397 1-527): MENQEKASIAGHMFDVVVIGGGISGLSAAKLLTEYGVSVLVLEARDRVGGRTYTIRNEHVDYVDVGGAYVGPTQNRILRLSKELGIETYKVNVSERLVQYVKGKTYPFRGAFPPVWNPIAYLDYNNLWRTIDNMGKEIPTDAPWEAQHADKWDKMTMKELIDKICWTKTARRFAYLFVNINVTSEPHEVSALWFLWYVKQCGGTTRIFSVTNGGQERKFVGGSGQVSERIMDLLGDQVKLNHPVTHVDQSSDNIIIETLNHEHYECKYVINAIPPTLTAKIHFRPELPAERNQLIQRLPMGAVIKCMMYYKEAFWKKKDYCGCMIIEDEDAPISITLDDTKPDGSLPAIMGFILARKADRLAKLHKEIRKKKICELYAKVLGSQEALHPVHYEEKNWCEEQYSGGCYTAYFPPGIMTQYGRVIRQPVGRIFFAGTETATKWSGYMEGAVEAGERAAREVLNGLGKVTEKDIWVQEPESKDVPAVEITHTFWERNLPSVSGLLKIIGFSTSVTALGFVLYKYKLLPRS
As to the kind of experiment: MAO inhibition assay (kynuramine, fluorimetric). In kind it is biochemical. The note with it: 10^-3 M. As for the experimental part:
as §2
For the compound `CSc1ccc(-c2nc3ccccc3n2CCN2CCOCC2)cc1` [Compound 2n, 2-(4-Methylthiophenyl)-1-[2-(morpholin-4-yl)ethyl]-1H-benzimidazole], the “MAO-A Inhibition (%)” value stood at 32.73%.
On the same count and under the same terms, for `c1ccc(-c2ccc(-c3nc4ccccc4n3CCN3CCOCC3)cc2)cc1` [Compound 2o, 2-(1,1’-Biphenyl)-1-[2-(morpholin-4-yl)ethyl]-1H-benzimidazole] the value was 31.85%.

The assay is the same for the next values; noted with them: 10^-4 M.
Turning to `CSc1ccc(-c2nc3ccccc3n2CCN2CCOCC2)cc1` [Compound 2n, 2-(4-Methylthiophenyl)-1-[2-(morpholin-4-yl)ethyl]-1H-benzimidazole], the “MAO-A Inhibition (%)” value is on record as 24.05%.
The same measure, in the same setting: for `c1ccc(-c2ccc(-c3nc4ccccc4n3CCN3CCOCC3)cc2)cc1` [Compound 2o, 2-(1,1’-Biphenyl)-1-[2-(morpholin-4-yl)ethyl]-1H-benzimidazole] the value was 26.19%.

The target in the next assay is AChE (Homo sapiens, UniProt P22303).
AChE, sequence (P22303 32-614): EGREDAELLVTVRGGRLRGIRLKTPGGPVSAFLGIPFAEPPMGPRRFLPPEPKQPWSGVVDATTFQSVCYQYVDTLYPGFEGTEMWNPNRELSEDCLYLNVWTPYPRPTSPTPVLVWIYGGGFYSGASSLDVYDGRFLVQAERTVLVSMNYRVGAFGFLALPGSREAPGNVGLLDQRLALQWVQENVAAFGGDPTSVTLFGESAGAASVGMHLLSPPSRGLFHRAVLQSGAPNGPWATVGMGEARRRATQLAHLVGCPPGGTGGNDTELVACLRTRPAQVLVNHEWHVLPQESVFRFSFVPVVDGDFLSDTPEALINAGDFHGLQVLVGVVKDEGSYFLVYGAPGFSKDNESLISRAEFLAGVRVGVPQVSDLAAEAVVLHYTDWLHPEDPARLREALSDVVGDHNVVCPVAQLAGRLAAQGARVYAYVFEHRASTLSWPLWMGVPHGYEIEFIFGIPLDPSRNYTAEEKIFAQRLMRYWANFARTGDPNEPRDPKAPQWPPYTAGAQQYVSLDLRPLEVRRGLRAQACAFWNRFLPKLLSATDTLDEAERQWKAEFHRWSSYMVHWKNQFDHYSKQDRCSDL
Assay: not given
It is filed as biochemical. The note with it: 10^-3 M. The protocol: Inhibition potency of the test compounds against AChE was determined using Ellman’s method. Enzyme solutions were prepared in gelatin solution (1%, w/v), at the concentration of 2.5 units/mL. […] AChE solution (20 µL/well) and test solution (20 µL/well) were added to phosphate buffer solution (140 µL/well, pH 8.0 ± 0.1), and incubated at 25 °C for 5 min. […] The production of the yellow anion was recorded by multimode microplate reader for 10 min at 412 nm. As a control, an identical solution of the enzyme without the inhibitor was processed. The control and the inhibitor readings were corrected with blank-readings. All processes were assayed in four independent determinations.
Turning to `CSc1ccc(-c2nc3ccccc3n2CCN2CCOCC2)cc1` [Compound 2n, 2-(4-Methylthiophenyl)-1-[2-(morpholin-4-yl)ethyl]-1H-benzimidazole], the “AChE Inhibition (%)” value was 12.21%.
`c1ccc(-c2ccc(-c3nc4ccccc4n3CCN3CCOCC3)cc2)cc1` [Compound 2o, 2-(1,1’-Biphenyl)-1-[2-(morpholin-4-yl)ethyl]-1H-benzimidazole]: the “AChE Inhibition (%)” value was 6.33%.

Still in this assay, the particulars now being: 10^-4 M.
In the case of `CSc1ccc(-c2nc3ccccc3n2CCN2CCOCC2)cc1` [Compound 2n, 2-(4-Methylthiophenyl)-1-[2-(morpholin-4-yl)ethyl]-1H-benzimidazole], the “AChE Inhibition (%)” value stood at 12.21%.
Same read-out and setting: the result for `c1ccc(-c2ccc(-c3nc4ccccc4n3CCN3CCOCC3)cc2)cc1` [Compound 2o, 2-(1,1’-Biphenyl)-1-[2-(morpholin-4-yl)ethyl]-1H-benzimidazole] reads 6.33%.

In another assay the test system is Pseudomona aeuroginosa ATCC 27853. As to the kind of experiment: Antimicrobial broth microdilution (CLSI M07-A9). It is filed as cell-based. As to conditions: Pseudomona aeuroginosa [sic] ATCC 27853. As for the experimental part: Microbiological studies were performed according to CLSI reference M07-A9 broth microdilution method for bacterial strains and EUCAST definitive method EDef 7.1 for Candida species. Synthesized compounds were tested for their in vitro growth inhibitory activity against Escherichia coli ATCC 35218, Escherichia coli ATCC 25922, Staphylococcus aureus, ATCC 25923, Pseudomona aeuroginosa ATCC 27853, Enterococcus faecalis ATCC29212, Klebsiella pneumoniae ATCC700603 Listeria monocytogenes ATCC7644, Candida albicans ATCC90028, Candida glabrata ATCC 90030, Candida krusei ATCC 6258, Candida parapsilosis ATCC 22019.
The cultures were obtained from Mueller-Hinton broth (Difco) for the bacterial strains and the yeasts were maintained in Roswell Park Memorial Institute (RPMI) medium, after an overnight incubation at 37 °C for both. The inocula of the test microorganisms were adjusted to match an equivalent turbidity of a 0.5 McFarland standard, which was determined using a spectrophotometer; the final inoculum size was determined to be 0.5–2.5 × 10^5 cfu/mL for antibacterial and antifungal assays. The tests were carried out for both mediums at pH = 7 and two-fold serial dilutions were applied. The last well on the microplates, which was containing only the inoculated broth, was kept as control, and the last well with no growth of microorganism was recorded to represent the minimum inhibitory concentration (MIC50) in μg/mL. For both of the antibacterial and antifungal assays, the test compounds and reference drugs were firstly dissolved in DMSO, and further dilutions were performed to the desired concentrations of 1000, 500, 250, 125, 62.5, 31.25, 15.6, 7.8, 3.9 and 1.95 μg/mL using Mueller–Hinton broth and RPMI medium. The completed plates were incubated for 24 h, and at the end of the incubation, resazurin (20 µg/mL) was added into each well to control the growth in the wells. Final plates including microorganism strains were incubated for 2 h. MIC50 values were determined using microplate reader at […] wavelengths; MIC50 readings were performed twice for entire compounds. Chloramphenicol and ketoconazole were used as reference drugs.
On the technique in general: In broth dilution the organism is exposed to a series of concentrations in liquid medium.
Turning to `O=C(N[C@H](CO)[C@H](O)c1ccc([N+](=O)[O-])cc1)C(Cl)Cl` [Chloramphenicol, reference compound], the MIC50 was 250 µg/mL (≈ 774 µM).

The term MIC50 denotes an inhibitory concentration at the 50% level, which refers to growth in some studies and to a panel of isolates in others. Read a high MIC50 as lower susceptibility.
